Results on 30 compounds are retold here after US9399636B2, “Substituted dipyridylamines and uses thereof” (Genentech, Inc., priority 2012, dated 2016).

This test concerns the target T1, DLK (Homo sapiens, UniProt Q12852).
T1 construct: N-terminally GST-tagged DLK (catalytic domain amino acid 1-520) (Carna Bioscience); GST (N); purchased Carna Bioscience
T1 sequence (Q12852 1-520): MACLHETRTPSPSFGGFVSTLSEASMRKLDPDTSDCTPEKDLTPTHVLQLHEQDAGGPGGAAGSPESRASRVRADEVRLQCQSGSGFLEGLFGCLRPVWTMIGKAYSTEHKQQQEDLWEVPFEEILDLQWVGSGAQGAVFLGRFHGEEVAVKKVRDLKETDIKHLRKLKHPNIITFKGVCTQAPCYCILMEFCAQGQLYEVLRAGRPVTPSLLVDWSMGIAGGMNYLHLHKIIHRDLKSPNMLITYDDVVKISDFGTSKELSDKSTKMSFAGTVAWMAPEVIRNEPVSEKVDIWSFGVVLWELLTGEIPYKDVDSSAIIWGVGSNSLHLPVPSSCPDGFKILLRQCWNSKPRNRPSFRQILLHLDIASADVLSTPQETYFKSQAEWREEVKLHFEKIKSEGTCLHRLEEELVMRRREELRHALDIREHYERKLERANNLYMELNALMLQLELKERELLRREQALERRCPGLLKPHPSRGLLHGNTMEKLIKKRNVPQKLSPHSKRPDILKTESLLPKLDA
Nature of the test: DLK TR-FRET assay. The test is classed as biochemical. Conditions: 5 nM GST-tagged DLK (catalytic domain amino acid 1-520), 40 nM HIS-tagged MKK4 K131M substrate, 30 μM ATP, 60 minutes. The essentials: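 Phosphorylation of HIS-tagged MKK4 K131M (40 nM) by GST-DLK aa 1-520 (5 nM) at 30 μM ATP, pH 7.5, run 60 min at ambient temperature. Compound series started at 20 uM, diluted 1:3. Phospho-MKK4 detected by TR-FRET (Eu cryptate/D2 antibodies, 3 h, EDTA-containing buffer).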
Background: Time-resolved FRET reads energy transfer from a long-lived donor to a nearby acceptor.
What is called Ki is a measure of affinity in units of concentration, obtained from inhibition or displacement. Turning to `N#Cc1ccnc(Nc2cc(C3(C#N)CCOCC3)cc(N3CCCC3=O)n2)c1` [Example 47, 2-[4-(4-Cyano-tetrahydro-pyran-4-yl)-6-(2-oxo-pyrrolidin-1-yl)-pyridin-2-ylamino]-isonicotinonitrile], the Ki came to 40 nM. As for `Cc1ccnc(Nc2cc(C3CCN(C4COC4)CC3)cc(N3CCC[C@H]3C)n2)c1` [Example 135, (4-Methyl-pyridin-2-yl)-[6-((R)-2-methyl-pyrrolidin-1-yl)-1′-oxetan-3-yl-1′,2′,3′,4′,5′,6′-hexahydro-[4,4′]bipyridinyl-2-yl]-amine], the figure is 21 nM; as for `Cc1cc(C2CCN(C3COC3)CC2)cc(Nc2cc(C(F)F)ccn2)n1` [Example 27, (4-Difluoromethyl-pyridin-2-yl)-(6-methyl-1′-oxetan-3-yl-1′,2′,3′,4′,5′,6′-hexahydro-[4,4′]bipyridinyl-2-yl)-amine], 100 nM.

With `Cc1cc(C2=CCOCC2)cc(Nc2cc(C#N)ccn2)n1` [Example 112, 2-[4-(3,6-Dihydro-2H-pyran-4-yl)-6-methyl-pyridin-2-ylamino]-isonicotinonitrile], affinity was put at a Ki of 220 nM.

Consider `N#Cc1ccnc(Nc2cc(C3CCOCC3)cc(N3CC4(COC4)C3)n2)c1` [Example 82, 2-[6-(2-Oxa-6-aza-spiro[3.3]hept-6-yl)-4-(tetrahydro-pyran-4-yl)-pyridin-2-ylamino]-isonicotinonitrile], for which the affinity corresponds to a Ki of 100 nM. The compound `CC(=O)N1CCC(c2cc(C)nc(Nc3cc(C#N)ccn3)c2)CC1` [Example 108, 2-(1′-Acetyl-6-methyl-1′,2′,3′,4′,5′,6′-hexahydro[4,4′]bipyridinyl-2-ylamino)-isonicotinonitrile] had a Ki of 93 nM. In the case of `N#Cc1ccnc(Nc2cc(C3CCN(C4COC4)CC3)cc(N3CC4(COC4)C3)n2)c1` [Example 98, 2-[6-(2-Oxa-6-aza-spiro[3.3]hept-6-yl)-1′-oxetan-3-yl-1′,2′,3′,4′,5′,6′-hexahydro-[4,4′]bipyridinyl-2-ylamino]-isonicotinonitrile] it was 42.2 nM; in that of `COC1CCN(c2cc(C3CCOCC3)cc(Nc3cc(C#N)ccn3)n2)C1` (stereo not drawn) [Example 101, 2-[6-(3-Methoxy-pyrrolidin-1-yl)-4-(tetrahydro-pyran-4-yl)-pyridin-2-ylamino]-isonicotinonitrile], 38 nM; in that of `N#Cc1ccnc(Nc2cc(C3CCN(C4COC4)CC3)cc(N3CCC4(CCOC4)C3)n2)c1` (stereo not drawn) [Example 95, 2-[6-(2-Oxa-7-aza-spiro[4.4]non-7-yl)-1′-oxetan-3-yl-1′,2′,3′,4′,5′,6′-hexahydro-[4,4′]bipyridinyl-2-ylamino]-isonicotinonitrile], 7.3 nM. In the case of `CN1CCCC(c2cc(Nc3cc(C(F)(F)F)ccn3)nc(N3CCC(F)(F)C3)c2)C1` (stereo not drawn) [Example 138, [6′-(3,3-Difluoro-pyrrolidin-1-yl)-1-methyl-1,2,3,4,5,6-hexahydro-[3,4′]bipyridinyl-2′-yl]-(4-trifluoromethyl-pyridin-2-yl)-amine] it was 0.17 nM; in that of `Cc1cc(C2CCN(C3COC3)CC2)cc(Nc2cc(C#N)ccn2)n1` [Example 110, 2-(6-Methyl-1′-oxetan-3-yl-1′,2′,3′,4′,5′,6′-hexahydro-[4,4′]bipyridinyl-2-ylamino)-isonicotinonitrile], 93 nM. As for `CCc1cc(C2CCN(C(C)=O)CC2)cc(Nc2cc(C#N)ccn2)n1` [Example 60, 2-(1′-Acetyl-6-ethyl-1′,2′,3′,4′,5′,6′-hexahydro-[4,4′]bipyridinyl-2-ylamino)-isonicotinonitrile], the figure is 28 nM; as for `Cn1cc(-c2cc(C3CCOCC3)cc(Nc3cc(OC(F)F)ccn3)n2)cn1` [Example 118, (4-Difluoromethoxy-pyridin-2-yl)-[6-(1-methyl-1H-pyrazol-4-yl)-4-(tetrahydro-pyran-4-yl)-pyridin-2-yl]-amine], 4 nM; as for `N#Cc1ccnc(Nc2cc(C3CCN(C4COC4)CC3)cc(Cl)n2)c1` [Example 106, 2-(6-Chloro-1′-oxetan-3-yl-1′,2′,3′,4′,5′,6′-hexahydro-[4,4′]bipyridinyl-2-ylamino)-isonicotinonitrile], 10 nM.

In turn, `C[C@@H]1CCCN1c1cc(C2CCOCC2)cc(Nc2cc(C(F)(F)F)ccn2)n1` [Example 125, [6-((R)-2-Methyl-pyrrolidin-1-yl)-4-(tetrahydro-pyran-4-yl)-pyridin-2-yl]-(4-trifluoromethyl-pyridin-2-yl)-amine] returned an inhibition constant (Ki) of 3.1 nM.

The compound `CC(=O)N1CCC(c2cc(Nc3cc(C(F)(F)F)ccn3)nc(N3CCC(F)(F)C3)c2)CC1` [Example 143, 1-[2′-(3,3-Difluoro-pyrrolidin-1-yl)-6′-(4-trifluoromethyl-pyridin-2-ylamino)-3,4,5,6-tetrahydro-2H-[4,4′]bipyridinyl-1-yl]-ethanone] gave a Ki of 1.2 nM. As for `N#Cc1ccnc(Nc2cc(C3CCN(C4COC4)CC3)cc(N3CCC[C@@H]3C(F)(F)F)n2)c1` [Example 70, 2-[1′-Oxetan-3-yl-6-((R)-2-trifluoromethyl-pyrrolidin-1-yl)-1′,2′,3′,4′,5′,6′-hexahydro-[4,4′]bipyridinyl-2-ylamino]-isonicotinonitrile], the figure is 1.8 nM. As for `N#Cc1ccnc(Nc2cc(C3CCOCC3)cc(N3CC4CC(F)(F)C4C3)n2)c1` (stereo not drawn) [Example 100, 2-[6-(6,6-Difluoro-3-aza-bicyclo[3.2.0]hept-3-yl)-4-(tetrahydro-pyran-4-yl)-pyridin-2-ylamino]-isonicotinonitrile], the figure is 11 nM; as for `CCCCOc1cc(C2CCN(C3COC3)CC2)cc(Nc2cc(C(F)F)ccn2)n1` [Example 43, (6-Butoxy-1′-oxetan-3-yl-1′,2′,3′,4′,5′,6′-hexahydro-[4,4′]bipyridinyl-2-yl)-(4-difluoro-methyl-pyridin-2-yl)-amine], 3.8 nM; as for `CCc1cc(C2CCN(C3COC3)CC2)cc(Nc2cc(C#N)ccn2)n1` [Example 29, 2-(6-Ethyl-1′-oxetan-3-yl-1′,2′,3′,4′,5′,6′-hexahydro-[4,4′]bipyridinyl-2-ylamino)-isonicotinonitrile], 18 nM. As for `COC1CN(c2cc(C3CCN(C4COC4)CC3)cc(Nc3cc(C#N)ccn3)n2)C1` [Example 96, 2-[6-(3-Methoxy-azetidin-1-yl)-1′-oxetan-3-yl-1′,2′,3′,4′,5′,6′-hexahydro-[4,4′]bipyridinyl-2-ylamino]-isonicotinonitrile], the figure is 18 nM; as for `N#CC1(c2cc(Cl)nc(Nc3cc(C(F)F)ccn3)c2)CCOCC1` [Example 66, 4-[2-Chloro-6-(4-difluoromethyl-pyridin-2-ylamino)-pyridin-4-yl]-tetrahydro-pyran-4-carbonitrile], 43 nM. In the case of `CS(=O)(=O)N1CC(c2cc(Nc3cc(C(F)(F)F)ccn3)nc(N3CCC(F)(F)C3)c2)C1` [Example 126, [6-(3,3-Difluoro-pyrrolidin-1-yl)-4-(1-methanesulfonyl-azetidin-3-yl)-pyridin-2-yl]-(4-trifluoromethyl-pyridin-2-yl)-amine], the inhibition constant (Ki) is 6.6 nM. As for `CC1CCCN1c1cc(C2CCN(S(C)(=O)=O)C2)cc(Nc2cc(C(F)(F)F)ccn2)n1` (stereo not drawn) [Example 132, [4-(1-Methanesulfonyl-pyrrolidin-3-yl)-6-(2-methyl-pyrrolidin-1-yl)-pyridin-2-yl]-(4-trifluoromethyl-pyridin-2-yl)-amine], the figure is 2.12 nM; as for `Cc1cc(C2CCOCC2)cc(Nc2cc(CN)ccn2)n1` [Example 113, (4-Aminomethyl-pyridin-2-yl)-[6-methyl-4-(tetrahydro-pyran-4-yl)-pyridin-2-yl]-amine], 1600 nM; as for `Cc1cc(C2CCOCC2)cc(Nc2cc(C#N)ccn2)n1` [Example 80, 2-[6-Methyl-4-(tetrahydro-pyran-4-yl)-pyridin-2-ylamino]-isonicotinonitrile], 58 nM. In the case of `Cc1ccc(Nc2cc(C3CCN(C(=O)C4CCCCC4)CC3)ccn2)nc1` [Example 145, cyclohexyl(4-(2-((5-methylpyridin-2-yl)amino)pyridin-4-yl)piperidin-1-yl)methanone] it was 3600 nM; in that of `CC(=O)N1CC(c2cc(Nc3cc(C(F)(F)F)ccn3)nc(N3CCC(F)(F)C3)c2)C1` [Example 127, 1-{3-[2-(3,3-Difluoro-pyrrolidin-1-yl)-6-(4-trifluoromethyl-pyridin-2-ylamino)-pyridin-4-yl]-azetidin-1-yl}-ethanone], 2.9 nM. As for `C[C@@H]1CCCN1c1cc(C2(C#N)CCNCC2)cc(Nc2cc(C#N)ccn2)n1` [Example 39, 2′-(4-Cyano-pyridin-2-ylamino)-6′-((R)-2-methyl-pyrrolidin-1-yl)-2,3,5,6-tetrahydro-1H-[4,4′]bipyridinyl-4-carbonitrile], the figure is 0.17 nM; as for `Cc1cc(C2CCN(S(C)(=O)=O)CC2)cc(Nc2cc(C#N)ccn2)n1` [Example 109, 2-(1′-Methanesulfonyl-6-methyl-1′,2′,3′,4′,5′,6′-hexahydro-[4,4′]bipyridinyl-2-ylamino)-isonicotinonitrile], 140 nM.
